Assay results published in patent US20090022824A1, “Pesticidal formulations” (Akhil Technologies Pty Ltd, priority 2005, published 2009).

Tested on: root-knot nematode (Meloidogyne javanica)
Test: Efficacy to control root-knot nematode, pot trial with tomato plants
Assay type: in vivo
Settings: tomato cv. Tiny Tim, relative to untreated control
Method: The efficacy of pesticidal formulations in the control of root-knot nematode (Meloidogyne javanica) as a pre-plant soil pesticidal formulation was investigated.
The root-knot nematode colonies were prepared with 1 kg of river sand placed in 100 mm diameter pots. The sand was inoculated with 10,000 eggs of root-knot nematode (M. javanica). The eggs were harvested from the roots of infected tomato plants (Lycopersicon esculentum cv. Tiny Tim) by washing in a 1% bleach solution for 3 minutes, collecting the […] on a 25 μm sieve and rinsing in running tap water for 2 minutes.
The appropriate treatment was applied to each pot in 5 mL of water using five 1 mL injections spaced evenly around the pot. Each dilution of the pesticidal formulation was applied using a pipette so that the tip of the pipette was 20 mm below the soil surface. The pots were allowed to stand for 7 days before planting a three week old tomato plant (c.v. Tiny Tim) in each pot.
Six weeks after planting the tomatoes were harvested. The tops of the plants were removed and dried for 4 days at 70° C. before being weighed. […] The juvenile nematodes were collected on a 25 μm sieve, backwashed and counted using a compound microscope at 40× magnification. […]

In the case of `CNC(=S)[S-].[Na+]` [metham sodium], the “juvenile root-knot nematodes extracted from the roots” value (six weeks after planting, FIG. 2) is reported as “significantly fewer” and the “galls on the root system of tomato plants (gall rating)” value (soil inoculated with 10,000 eggs, harvested six weeks after planting, FIG. 1) is reported as “significantly fewer”.
